Data reported in patent publication US9289505B2, “Compositions and methods for delivering nucleic acid molecules and treating cancer” (Rutgers, The State University of New Jersey, priority 2010, dated 2016).
Non-standard residues stand in square brackets, D forms with d. No end group written: not given here. d = 2'-deoxy (DNA); r = 2'-OH (RNA)

Tests used:
[1] = tested on: xenografts of human malignant ascites (ovarian carcinoma); experiment: In vivo antitumor activity in mice bearing xenografts of human malignant ascites; conditions: intraperitoneal treatment max 8 times within 30 days; DOX 2.5 mg/kg, CIS 2.5 mg/kg
Method: All mice received cancer cells from the same patient. When the tumors reached a size of about 0.3 cm^3 (15-20 days after transplantation), mice were treated intraperitoneally with the following formulations: (1) Saline (untreated control); (2) Liposomes (Lip); (3) LHRH; (4) DOX; (5) Lip-DOX; (6) Lip-DOX-BCL2 ASO; (7) Lip-DOX-MDR1 ASO; (8) Lip-DOX-BCL2-MDR1 ASO; (9) LHRH-Lip-DOX-BCL2-MDR1 ASO; (10) CIS; (11) Lip-CIS; (12) Lip-CIS-BCL2 ASO; (13) Lip-CIS-MDR1 ASO; (14) Lip-CIS-BCL2-MDR1 ASO; (15) LHRH-Lip-CIS-BCL2-MDR1 ASO; (16) DOX+CIS; (17) Lip-DOX+Lip-CIS; (18) Lip-DOX-BCL2 ASO+Lip-CIS-BCL2 ASO; (19) Lip-DOX-MDR1 ASO+Lip-CIS-MDR1 ASO; (20) Lip-DOX-BCL2-MDR1 ASO+Lip-CIS-BCL2-MDR1 ASO; (21) LHRH-Lip-DOX-BCL2-MDR1 ASO+LHRH-Lip-CIS-BCL2-MDR1 ASO. […] The animals were treated maximum 8 times over four weeks and the development of primary tumor and intraperitoneal metastases was monitored by fluorescent IVIS (Xenogen, Alameda, Calif.) and ultrasound Vevo 2100 (VisualSonics, Toronto, Canada) imaging systems. To initiate bioluminescence of cancer cells, 1× substrate/reaction buffer (Clontech, Mountain View, Calif.) was diluted 1:20 with DPBS and 100 μl of the solution was injected into each mouse. The bioluminescent images were taken 10 minutes after the injection of the substrate. The size of primary tumor was measured by a caliper. At the end of the experiments, tumors and ascites were excised and their mass was measured. Animal weight was evaluated every day during the treatment period. Changes in tumor size were used as an overall marker for antitumor activity.

[2] = tested on: MDR1 mRNA; experiment: MDR1 gene expression in subcutaneous tumors, quantitative RT-PCR; format: in vivo, human; conditions: treated 8 times within 30 days, vs untreated control
Method: (§1) The expression of MDR1 and BCL2 genes was measured using a quantitative RT-PCR as previously described (Pakunlu et al. (2006) J. Control. Rel., 114:153-162). Gene expression was calculated as a percent of internal standard (β2-microglobulin). To identify the presence of BCL2, P-glycoprotein and Caspase 3 (CASP3) proteins, the immunohistochemical staining of paraffin-embedded tumor tissue slides was carried out. For BCL2 and CASP3, slides were deparaffinized in xylene for 5 min followed by progressive rehydration in 100%, 95%, 70% and 50% ethanol for 3 minutes during each step. Endogenous peroxidase activity was blocked by incubating slides in 3% H2O2 solution in methanol at room temperature for 10 minutes and washing in 300 ml PBS two times for 5 minutes. Slides then were stained with anti-mouse monoclonal antibodies for BCL2 conjugated with FITC (1:200 dilution; BioLegend, catalog number 633502, San Diego, Calif.) and for CASP3 conjugated with Alexa Flour 647 (1:200 dilution; BioLegend, catalog number 622702, San Diego, Calif.) by incubating for an hour, washed in 300 ml PBS two times for 5 minutes and analyzed by fluorescence microscopy. To identify the expression of P-glycoprotein, after deparaffinization and rehydration, the slides were stained using Vector® M.O.M. Immunodetection Kit (Vector Laboratories, Inc., Burlingame, Calif.). Mouse monoclonal antibody to P-glycoprotein (ab3366, 1:40 dilution) obtained from Abcam (Cambridge, Mass.) was used as primary antibody for the detection of P-glycoprotein. Biotinylated anti-mouse IgG Reagent (1:250 dilution, Vector Laboratories, Inc., Burlingame, Calif.) and HSP-Streptavidine Detection System (1:500 dilution, Vector Laboratories, Inc., Burlingame, Calif.) in combination with DAB substrate kit (Vector Laboratories, Inc., Burlingame, Calif.) for peroxidase were used for visualization. After staining, the slides were examined by light microscopy and photographed.

[3] = tested on: BCL2 mRNA; experiment: BCL2 gene expression in subcutaneous tumors, quantitative RT-PCR; format: in vivo, human; conditions: treated 8 times within 30 days, vs untreated control
Method: as §1

[4] = tested on: Caspase 3; experiment: Immunohistochemical staining of tumor tissue for Caspase 3; format: in vivo, human; conditions: tumor tissue sections
Method: as §1, with “Mouse monoclonal antibody to P-glycoprotein (ab3366, 1:40 dilution) obtained from Abcam (Cambridge, Mass.) was used as primary antibody for the detection of P-glycoprotein. Biotinylated anti-mouse IgG Reagent (1:250 dilution, Vector Laboratories, Inc., Burlingame, Calif.) and HSP-Streptavidine Detection System (1:500 dilution, Vector Laboratories, Inc., Burlingame, Calif.) in combination with DAB substrate kit (Vector Laboratories, Inc., Burlingame, Calif.) for peroxidase were used for visualization. After staining, the slides were examined by light microscopy and photographed.” left out

[5] = tested on: tumor and malignant ascites; experiment: Apoptosis induction in tumor and malignant ascites (cell death detection ELISA); format: in vivo, mice; conditions: histone-complexed DNA fragments
Method: (§2) Induction of apoptosis was analyzed by the measurement of the enrichment of histone-associated DNA fragments (mono- and oligo-nucleosomes) in homogenates of the tumor, malignant ascites and other organs (liver, kidney, lung, heart and brain) using anti-histone and anti-DNA antibodies by a cell death detection ELISA Plus kit (Roche, Nutley, N.J.) as previously described (Pakunlu et al. (2004) Cancer Res., 64:6214-6224; Dharap et al. (2005) Proc. Natl. Acad. Sci., 102:12962-12967; Dharap et al. (2003) Pharm. Res., 20:889-896).

[6] = Maximum tolerated dose from animal weight change; format: in vivo; conditions: mice; estimated from animal weight change after injection of increasing doses
[7] = tested on: subcutaneous tumor xenografts of human A549 cancer cells; experiment: Antitumor activity in subcutaneous A549 xenografts; conditions: intratumoral 3 times within 10 days
Method: NCR nude mice (female, 6 weeks, 20 g) were purchased from Taconic Farms, Inc. (Germantown, N.Y.). […] Briefly, A549 human cancer cells transfected with luciferase (5×10^6) were subcutaneously transplanted into the flanks of female athymic nu/nu mice. According to the approved institutional animal use protocol, the tumors were measured by a caliper every other day and their volumes were calculated as d^2×D/2 where d and D are the shortest and longest diameter of the tumor in mm, respectively. When the tumor reached a mean size of 50 mm^3, mice were divided into seven groups and injected intratumorally 3 times within 10 days with 150 μL of the following formulations: (1) saline (control); (2) free non-bound LHRH; (3) free non-bound siRNA; (4) free non-bound CIS; (5) Mixture of CIS and SPIO-PPI G5; (6) Mixture of CIS and SPIO-PPI G5-siRNA; and (7) Mixture of CIS and SPIO-PPI G5-siRNA-PEG-LHRH complexes. The concentrations of CIS and siRNA in the formulations were 2.5 mg/kg and 30 μM, respectively. Changes in tumor size were monitored by real-time bioluminescence in anesthetized animals by IVIS imaging system (Xenogen Bioscience, Cranbury, N.J.).

[8] = tested on: healthy organs (liver, kidney, spleen, heart, lung and brain); experiment: Apoptosis induction in healthy organs (cell death detection ELISA); format: in vivo, mice
Method: as §2

[9] = tested on: BCL2 gene; experiment: BCL2 gene expression, RT-PCR; format: cell-based, human; conditions: A2780 cells, BCL2 siRNA 1 μM delivered by the named carrier, 24 hours
Method: Reverse transcription-polymerase chain reaction (RT-PCR) was used for the analysis of gene expression (Pakunlu et al. (2004) Cancer Res., 64:6214-6224). […] After 24 hours, total cellular RNA was isolated using an RNeasy kit (Qiagen, Valencia, Calif.). […] After synthesis, the reaction mixture was immediately subjected to polymerase chain reaction (PCR), which was carried out using […] System 2400 (Perkin-Elmer, Shelton, Conn.). β2-microglobulin (β2-m) was used as an internal standard. The following pairs of primers were used: BCL2: [NT] (sense; SEQ ID NO: 6), [NT] (antisense; SEQ ID NO: 7); β2-m (internal […] (sense; SEQ ID NO: 8), [NT] (antisense; SEQ ID NO: 9). PCR regimen was as follows: 94° C. for 5 minutes; 94° C. for 1 minute, 55° C. for 1 minute, and 72° C. for 1 minute for 41 cycles; and 60° C. for 10 minutes. PCR products were separated in 4% NuSieve 3:1 Reliant-agarose gels (Lonza, Basel, Switzerland) in 1× Tris-borate EDTA buffer [0.089 mol/L Tris-borate, 0.002 mol/L EDTA (pH 8.3); Research Organics Inc., Cleveland, Ohio] by submarine electrophoresis. The gels were stained with EtBr and digitally photographed.

## N.N.[Cl][Pt][Cl] [CIS, cisplatin]
[1]
  development and mass of intraperitoneal metastases and malignant ascites: more effective in limiting the growth of both primary tumor and malignant ascites when compared to corresponding DOX formulations
  growth of primary subcutaneous tumor (volume): more effective in limiting the growth of both primary tumor and malignant ascites when compared to corresponding DOX formulations
[2]
  expression of MDR1 gene: statistically significant overexpression
[3]
  expression of BCL2 gene: statistically significant overexpression
[4]
  expression/activation of caspase 3: activated caspase 3
[5]
  apoptosis induction in tumor and malignant ascites: induced apoptosis
[6]
  maximum tolerated dose: 2.5 mg/kg
[7]; last day of treatment, CIS 2.5 mg/kg, siRNA 30 μM
  decrease of tumor volume/growth compared with untreated control: 36.2%

## COc1cccc2c1C(=O)c1c(O)c3c(c(O)c1C2=O)C[C@@](O)(C(=O)CO)C[C@@H]3O[C@H]1C[C@H](N)[C@H](O)[C@H](C)O1 [DOX, doxorubicin]
[1]
  growth of primary subcutaneous tumor (volume): slowed down the growth
[2]
  expression of MDR1 gene: statistically significant overexpression
[3]
  expression of BCL2 gene: statistically significant overexpression
[4]
  expression/activation of caspase 3: activated caspase 3
[5]
  apoptosis induction in tumor and malignant ascites: induced apoptosis
[6]
  maximum tolerated dose: 2.5 mg/kg

## Lys6-des-Gly10-Pro9-ethylamide (Gln-His-Trp-Ser-Tyr-DLys-Leu-Arg-Pro-NH-Et; SEQ ID NO: 3) (QHWSY[dK]LRP-NHEt) [LHRH]
[1]
  development and mass of intraperitoneal metastases and malignant ascites: did not influence
  growth of primary subcutaneous tumor (volume): did not influence
[2]
  expression of MDR1 gene: did not change significantly
[3]
  expression of BCL2 gene: did not change significantly
[5]
  apoptosis induction in tumor and malignant ascites: did not induce detectable levels of apoptosis
[8]
  apoptosis induction in healthy organs: did not induce detectable levels of apoptosis
[7]
  tumor growth / antitumor activity: did not significantly influence the growth of the tumor

## sense strand, 5′-CCU CGG GCU GUG CUC UUU U-dTdT-3′, SEQ ID NO: 10; antisense strand, 5′-AAA AGA GCA CAG CCC GAG G-dTdT-3′, SEQ ID NO: 11 (sense CCUCGGGCUGUGCUCUUUUTT; antisense AAAAGAGCACAGCCCGAGGTT; sugars from the 5' end r19 d2, backbone not given here) [naked non-specific siRNA, non-specific siRNA used as a negative control]
[9]
  expression of targeted BCL2 gene, from control value: did not influenced
